{"source": "paper PMC5007476", "about": "“Use of cross-reactivity immunoassay to orient insulin replacement in diabetic patients with high levels of insulin antibodies” (MethodsX, 2016)", "key": {"[1]": {"test_system": "insulin antibodies (IA) in patient serum", "experiment": "Displacement radioimmunoassay (RIA) for affinity and cross-reactivity of insulin antibodies in patient serum", "assay_type": "binding, human", "details": "for K0, average (median) affinity constant: at start of study (before change of insulin), patient serum 30 μL, duplicates, 5 days at 4 °C (near equilibrium), tracer mono [^125I A14] insulin ~20,000 cpm (5.8 × 10^−11 M), competitor 1 × 10^−9 to 10^−6 M; for Selectivity (S = KL/KCi): at start of study, KL = K0 of regular human insulin, KCi = K0 of the competitor analog", "experimental": "The homogeneous mono [^125I A14]\nFor in vitro cross-reactivity assessment a displacement RIA was applied by using the tracer described above. Briefly, duplicate 30 μL serum samples from the patient were incubated during 5 days at 4 °C (near equilibrium) with a constant amount of tracer (∼20,000 cpm). […] Insulin analogs were engineered to enhance desired molecular properties without altering immunogenicity, at least in theory. However, since the amino acid sequence of these insulin variants were changed to alter its absorption, distribution, metabolism and excretion characteristics, some residual capacity to elicit specific antibodies must be expected. […] Also the grade of alteration of the natural insulin molecule is of importance.\nIn order to express the degree of cross reactivity of IA induced by the initial insulin formulation (¨Ligand̈, L), against a panel of slow or fast action insulin analogs as described above (Competitors̈, Ci), the parameter selectivity (S), as defined elsewhere (Berzofsky and Schechter; Berzofsky et al.), was employed. Approximate values for average (median) affinity (K0) for L and those from each Ci, were obtained from the plots of B/F signals as a function of each competitor concentration, interpolating in the abscissa axis the respective doses corresponding to the maximum/2 signal [(B/F)0/2] (Graphical abstract, RIA plot). Alternatively, a best fit to the true affinity constants was obtained by representing B/F signals for each ligand as a function of free tracer (F) calculated by the formula: F = [C/(1 + B/F)]. It is important to emphasize that the molar concentration of the tracer in the test must be lower than the inverse of K0 value. This condition precludes the preparation of the respective labeled competitors to perform specific single RIAs for each homologous ligand. (Berzofsky and Schechter). In the RIA the concentration of tracer was 5.8 × 10^−11 M (see Preparation of the homogeneous tracer mono [^125I A14] Insulin) and K0 values for IA (ranging 10^6–10^8 M^−1) were obtained from previous work of our laboratory (Trabucchi et al.; Trabucchi et al.).\nFinally, the respective Selectivity ratios were obtained using the expression: Si = KL/KCi."}, "[2]": {"details": "cited from earlier work", "description": "Detemir is an insulin analog in which a fatty acid (myristic acid) is bound to the lysine amino acid at position B29. […] Accordingly, its persistence as a potential antigen in circulation must not be ruled out. Glargine was created by modifying three amino acids. […] In order to avoid ... || Glulisine is a rapid-acting insulin analog that differs from human insulin in that the amino acid asparagine at position B3 is replaced by lysine and the lysine in position B29 is replaced by glutamic acid."}, "[3]": {"details": "background, no reference given, cited from earlier work", "description": "(§1) Detemir is an insulin analog in which a fatty acid (myristic acid) is bound to the lysine amino acid at position B29. […] Accordingly, its persistence as a potential antigen in circulation must not be ruled out. Glargine was created by modifying three amino acids. […] In order to avoid ..."}, "[4]": {"details": "effect of the sequence modification; background, no reference given; cited from earlier work", "description": "(§2) Lispro was engineered through recombinant DNA technology so that the penultimate lysine and proline residues on the C-terminal end of the B-chain were reversed. […] This allowed larger amounts of active monomeric insulin to be available for postprandial (after meal) injections. Similar to Glulisine, the monomeric state of Lispro theoretically may diminish the chance of phagocytosis by cells of the Immune System resulting in lower immunogenicity."}, "insulin receptor": {"test_system": "insulin receptor", "details": "effect of the sequence modification; background, no reference given; cited from earlier work", "description": "as §2"}, "serum albumin": {"test_system": "serum albumin", "details": "background, no reference given; cited from earlier work", "description": "as §1"}, "[5]": {"experiment": "Metabolic control of the patient (glycaemia, HbA1c) under insulin treatment", "assay_type": "in vivo, human"}, "[6]": {"test_system": "anti-insulin antibodies (IA)", "quoted_text": "Insulin used as a tracer for both radiometric methods, RBA and RIA, was produced using recombinant human insulin (HumulinC from Eli Lilly, Indiana, USA) devoid of preservative substances by chromatography on a Sephadex G25 column (Amersham Biosciences, New Jersey, USA). The labeling and HPLC purification steps were carried out following as indicated by Linde et al. [3] and Jørgensen et al. [4], respectively. Specific radioactivity of roughly 300–380 μCi/μg was routinely achieved.\nThe concentration of tracer in both, RBA and RIA, was 5.8 × 10^−11, calculated from an activity of 20,000 cpm; Relative mass of insulin, 5808 Da; Final incubation volume, 0,12 mL; Gamma counter efficiency, 70%; Specific activity of fresh insulin tracer, 380 μCi/μg.\nRadioligand binding assay for IA assessment, performed routinely as official analysis service at IDEHU-CONICET laboratory, was based on the original procedure indicated by Kurtz et al. [5] and carried out essentially as previously described by Stumpo et al. [6]. […] Results were expressed as specific insulin binding percentage B% = Bwi% (preincubated without cold insulin) – Bie% (preincubated with excess cold insulin). Reproducibility was assessed at different binding levels. […]"}, "[7]": {"details": "before change, more than 3 IU/kg/day NPH human insulin complemented with crystalline human insulin"}, "[8]": {"details": "after 6 months of Glulisine 0,6 IU/Kg/day by pump infusion"}}, "note": "Like-named read-outs stand apart in the source and are kept apart here.", "data": [{"substance": "Glargine", "values": [{"measurement": "K0, average (median) affinity constant", "setting": "[1]", "result": "2.1e+07", "unit": "M⁻¹"}, {"measurement": "Selectivity (S = KL/KCi)", "setting": "[1]", "result": 37.6}, {"measurement": "duration/onset of action (in words)", "setting": "[2]; background, no reference given", "result": "prolonged action when compared with biosynthetic human insulin"}, {"measurement": "solubility at physiological pH (in words)", "setting": "[3]; physiological pH", "result": "less soluble at a physiological pH"}, {"measurement": "isoelectric point", "setting": "[3]; shifted from 5.4 by two added arginine residues", "result": 6.7}, {"measurement": "solubility at slightly acidic pH (in words)", "setting": "[3]; slightly acidic pH", "result": "more soluble at a slightly acidic pH"}]}, {"substance": "Lispro", "values": [{"measurement": "K0, average (median) affinity constant", "setting": "[1]", "result": "1.96e+07", "unit": "M⁻¹"}, {"measurement": "Selectivity (S = KL/KCi)", "setting": "[1]", "result": 40.3}, {"measurement": "K0, affinity constant", "setting": "[1]; control RIA on serum sample after 14 months (of Glulisine treatment)", "result": "3.4e+07", "unit": "M⁻¹"}, {"measurement": "formation of insulin dimers and hexamers (in words)", "setting": "[4]", "result": "blocked the formation of insulin dimers and hexamers"}, {"measurement": "insulin receptor binding (in words)", "setting": "insulin receptor", "result": "did not alter the insulin receptor binding"}]}, {"substance": "Detemir", "values": [{"measurement": "Selectivity (S = KL/KCi)", "setting": "[1]", "result": "~1"}, {"measurement": "duration/onset of action (in words)", "setting": "[2]", "result": "increasing its duration of action"}, {"measurement": "affinity for serum albumin (in words)", "setting": "serum albumin", "result": "high affinity for serum albumin"}]}, {"substance": "NPH human insulin: NPH human insulin (Humulin – Eli Lilly) complemented with crystalline human insulin", "values": [{"measurement": "HbA1C", "setting": "[5]; [7]", "result": 11, "unit": "%"}, {"measurement": "HbA1C (IFCC)", "setting": "[5]; [7]", "result": 97, "unit": "mmol/mol"}, {"measurement": "metabolic control (in words)", "setting": "[5]; before change, more than 3 IU/kg/day NPH human insulin complemented with crystalline human insulin, last two years", "result": "inadequate metabolic control"}]}, {"substance": "regular human insulin: unlabeled regular crystalline human insulin (Humulin, Eli Lilly)", "values": [{"measurement": "K0, average (median) affinity constant", "setting": "[1]", "result": "7.9e+08", "unit": "M⁻¹"}]}, {"substance": "Glulisine", "values": [{"measurement": "change of B% signal (in words)", "setting": "[6]", "result": "significant decrease in B% signal"}, {"measurement": "K0, average (median) affinity constant", "setting": "[1]", "result": "1e+06", "unit": "M⁻¹"}, {"measurement": "Selectivity (S = KL/KCi)", "setting": "[1]", "result": 790}, {"measurement": "IA binding rate compared with regular human insulin", "setting": "[1]; in vitro, at the same doses, start of study", "result": "1/790"}, {"measurement": "HbA1c", "setting": "[5]; [8]", "result": 7.6, "unit": "%"}, {"measurement": "HbA1c (IFCC)", "setting": "[5]; [8]", "result": 60, "unit": "mmol/mol"}, {"measurement": "metabolic control (in words)", "setting": "[5]; [8]", "result": "recovered metabolic control"}, {"measurement": "duration/onset of action (in words)", "setting": "[2]; background, no reference given", "result": "rapid-acting"}]}]}
